Results published in ChEMBL document CHEMBL4477267, “Discovery of oxa-sultams as RORc inverse agonists showing reduced lipophilicity, improved selectivity and favorable ADME properties” (Bioorg Med Chem Lett, 2016).
Converted amounts (≈) assume the structure as drawn. Values belong to the compound of their own block, whether it stands above or below them.

How the values were obtained:
[1] = target: T1, Nuclear receptor ROR-gamma (Homo sapiens) (UniProt P51449); test: Inverse agonist activity at human RORc-LBD assessed as inhibition of SRC1 co-activator peptide recruitment by FRET assay relative to apo-RORc basal activity
T1 sequence (whole entry): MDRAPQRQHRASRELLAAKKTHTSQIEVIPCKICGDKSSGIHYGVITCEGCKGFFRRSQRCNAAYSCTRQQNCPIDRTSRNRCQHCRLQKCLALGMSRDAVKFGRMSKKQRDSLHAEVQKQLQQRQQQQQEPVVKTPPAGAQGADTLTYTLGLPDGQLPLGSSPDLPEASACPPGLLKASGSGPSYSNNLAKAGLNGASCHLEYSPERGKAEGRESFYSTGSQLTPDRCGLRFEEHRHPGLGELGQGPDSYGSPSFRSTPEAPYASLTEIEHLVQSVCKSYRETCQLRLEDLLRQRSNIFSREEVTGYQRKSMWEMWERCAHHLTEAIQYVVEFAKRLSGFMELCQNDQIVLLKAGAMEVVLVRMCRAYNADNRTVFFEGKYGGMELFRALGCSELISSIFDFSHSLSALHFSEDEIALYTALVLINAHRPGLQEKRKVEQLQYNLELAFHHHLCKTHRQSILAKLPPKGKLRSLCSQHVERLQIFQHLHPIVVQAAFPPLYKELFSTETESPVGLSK

[2] = target: T2, Nuclear receptor ROR-gamma (Homo sapiens, UniProt P51449); test: Inverse agonist activity at human RORc-LBD assessed as inhibition of SRC1 co-activator peptide recruitment by FRET assay
T2 sequence (P51449 whole entry): T1 sequence (whole entry)

[3] = target: T3, Nuclear receptor ROR-alpha (Homo sapiens, UniProt P35398); test: Inverse agonist activity at GAL4-fused human RORa expressed in HEK293 cells assessed as […] of basal transcriptional activity by dual-glo luciferase reporter gene assay; type: cell-based
T3 sequence (P35398 whole entry): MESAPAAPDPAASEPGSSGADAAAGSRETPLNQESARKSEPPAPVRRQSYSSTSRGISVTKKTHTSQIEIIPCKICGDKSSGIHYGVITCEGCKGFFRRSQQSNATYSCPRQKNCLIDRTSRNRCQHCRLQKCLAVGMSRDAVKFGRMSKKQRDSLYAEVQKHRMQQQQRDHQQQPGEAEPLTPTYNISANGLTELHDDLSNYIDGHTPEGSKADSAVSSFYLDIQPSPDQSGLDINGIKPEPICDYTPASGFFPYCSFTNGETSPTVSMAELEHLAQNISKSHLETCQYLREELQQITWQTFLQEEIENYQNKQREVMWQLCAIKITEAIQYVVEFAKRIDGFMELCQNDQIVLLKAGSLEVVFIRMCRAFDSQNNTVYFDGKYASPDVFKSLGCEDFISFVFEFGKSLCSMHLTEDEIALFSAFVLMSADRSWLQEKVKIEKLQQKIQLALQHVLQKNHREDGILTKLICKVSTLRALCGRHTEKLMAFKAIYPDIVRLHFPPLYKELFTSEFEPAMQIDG

PBMC [4] = test: Inhibition of IFN-gamma production in anti-CD3 and anti-CD28 stimulated human PBMC measured […] by Sandwich ELISA; type: functional, cell-based
PBMC [5] = test: Cytotoxicity against human PBMC assessed as cell viability measured after 48 hrs by CellTiter-Glo assay; type: cell-based
[6] = target: T2, Nuclear receptor ROR-gamma; test: Inverse agonist activity at GAL4-fused human RORc expressed in HEK293 cells assessed as […] of basal transcriptional activity by dual-glo luciferase reporter gene assay; type: cell-based
[7] = target: T4, Nuclear receptor ROR-beta (Homo sapiens, UniProt Q92753); test: Inverse agonist activity at GAL4-fused human RORb expressed in HEK293 cells assessed as […] of basal transcriptional activity by dual-glo luciferase reporter gene assay; type: cell-based
T4 sequence (Q92753 whole entry): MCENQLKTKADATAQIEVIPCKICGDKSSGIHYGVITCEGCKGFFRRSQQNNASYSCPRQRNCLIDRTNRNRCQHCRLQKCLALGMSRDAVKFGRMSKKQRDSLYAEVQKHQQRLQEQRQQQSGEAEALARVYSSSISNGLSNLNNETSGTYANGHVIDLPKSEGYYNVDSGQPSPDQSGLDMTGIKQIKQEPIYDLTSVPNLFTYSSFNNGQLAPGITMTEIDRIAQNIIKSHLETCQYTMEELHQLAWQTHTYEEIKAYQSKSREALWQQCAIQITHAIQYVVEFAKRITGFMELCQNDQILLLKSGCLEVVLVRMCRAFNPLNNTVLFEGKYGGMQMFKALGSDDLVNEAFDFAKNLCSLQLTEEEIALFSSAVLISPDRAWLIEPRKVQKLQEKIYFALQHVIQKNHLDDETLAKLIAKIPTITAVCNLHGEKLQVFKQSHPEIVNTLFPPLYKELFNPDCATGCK

PBMC [8] = test: Inhibition of IL-17AA production in anti-CD3 and anti-CD28 stimulated human PBMC measured […] by Sandwich ELISA; type: functional, cell-based
PBMC [9] = test: Inhibition of IL-17AA production in anti-CD3 and anti-CD28 stimulated human PBMC measured […] by Sandwich ELISA relative to control; type: functional
[10] = Apparent permeability from basolateral to apical side in MDCK cells; type: ADME, cell-based, Canis lupus familiaris; conditions: dog
[11] = Clearance in rat liver microsomes relative to liver blood flow; type: ADME, Microsome; conditions: read-out: CLH
[12] = Efflux ratio of apparent permeability from basolateral to apical over apical to basolateral side in MDCK cells; type: ADME, cell-based, Canis lupus familiaris; conditions: dog
[13] = Protein binding in mouse plasma by equilibrium dialysis; type: ADME, cell-free; conditions: read-out: PPB (converted)
[14] = Protein binding in rat plasma by equilibrium dialysis; type: ADME, cell-free; conditions: read-out: PPB (converted)
[15] = Aqueous kinetic solubility of the compound in pH 7.4 by high-throughput assay; type: physicochemical
[16] = Clearance in human liver microsomes relative to liver blood flow; type: ADME, Microsome; conditions: read-out: CLH
[17] = Protein binding in human plasma by equilibrium dialysis; type: ADME, cell-free; conditions: read-out: PPB (converted)
[18] = Apparent permeability from apical to basolateral side in MDCK cells; type: ADME, cell-based, Canis lupus familiaris; conditions: dog

SMILES: CC(=O)N1CCN(c2ccc(CN3[C@@H](C)CC[C@H](c4cccs4)S3(=O)=O)c(F)c2)CC1
Efficacy [1]: 91%
EC50 [2]: 2 nM

SMILES: CC(=O)N1CCN(c2ccc(CN3[C@@H](C)CC[C@H](c4ccsc4)S3(=O)=O)c(F)c2)CC1
Efficacy [1]: 98%
EC50 [2]: 13 nM

SMILES: CC(=O)N1CCN(c2ccc(CN3CCCC[C@H](c4ccccc4)S3(=O)=O)c(F)c2)CC1
Efficacy [1]: 99%
EC50 [2]: 6 nM
EC50 [3]: 6800 nM
EC50 (PBMC [4]): > 20000 nM
EC50 (PBMC [5]): > 20000 nM
EC50 [6]: 25 nM
EC50 [7]: 6800 nM
EC50 (PBMC [8]): 430 nM
Imax (PBMC [9]): 80%

SMILES: CC(=O)N1CCN(c2ccc(CN3[C@@H](C)CC[C@H](c4cccc(Cl)c4)S3(=O)=O)c(F)c2)CC1
Efficacy [1]: 99%
EC50 [2]: 7 nM

SMILES: CC(=O)N1CCN(c2ccc(CN3[C@@H](C)CC[C@H](c4ccccc4)S3(=O)=O)c(F)c2)CC1
Papp B→A [10]: 32 ×10⁻⁶ cm/s
fraction unbound [13]: 0.04
EC50 [3]: 5400 nM
fraction unbound [14]: 0.05
EC50 (PBMC [4]): > 20000 nM
EC50 (PBMC [5]): > 20000 nM
solubility kinetic [15]: 20 µM (≈ 9.19 µg/mL)
EC50 [6]: 47 nM
EC50 [7]: 5400 nM
EC50 (PBMC [8]): 450 nM
fraction unbound [17]: 0.05
Papp A→B [18]: 24 ×10⁻⁶ cm/s
Imax (PBMC [9]): 82%

SMILES: COc1ccc([C@H]2CC[C@H](C)N(Cc3ccc(N4CCN(C(C)=O)CC4)cc3F)S2(=O)=O)cc1
Efficacy [1]: 96%
EC50 [2]: 28 nM

SMILES: COc1cccc([C@H]2CC[C@H](C)N(Cc3ccc(N4CCN(C(C)=O)CC4)cc3F)S2(=O)=O)c1
Efficacy [1]: 97%
EC50 [2]: 58 nM

SMILES: CC(=O)N1CCN(c2ccc(CN3[C@@H](C)CC[C@H](c4cccnc4)S3(=O)=O)c(F)c2)CC1
Efficacy [1]: 73%
EC50 [2]: 820 nM

SMILES: CC(=O)N1CCN(c2ccc(CN3C[C@@H](C)OC[C@H](c4ccccc4)S3(=O)=O)c(F)c2)CC1
Efficacy [1]: 100%
EC50 [2]: 21 nM

More lines, in order of falling EC50 [2], values ahead:

Efficacy [1]: 62%
EC50 [2]: 3900 nM
SMILES: CC(=O)N1CCN(c2ccc(CN3[C@@H](C)CC[C@H](c4ccc(C#N)cc4)S3(=O)=O)c(F)c2)CC1

Efficacy [1]: 76%
EC50 [2]: 1900 nM
SMILES: CC(=O)N1CCN(c2ccc(CN3[C@@H](C)CC[C@H](c4ccccc4C#N)S3(=O)=O)c(F)c2)CC1

Efficacy [1]: 64%
EC50 [2]: 1300 nM
SMILES: CC(=O)N1CCN(c2ccc(CN3[C@@H](C)CC[C@H](c4cccc(C#N)c4)S3(=O)=O)c(F)c2)CC1

Efficacy [1]: 76%
EC50 [2]: 410 nM
SMILES: CC(=O)N1CCN(c2ccc(CN3[C@@H](C)CC[C@H](c4ncccn4)S3(=O)=O)c(F)c2)CC1

Efficacy [1]: 89%
EC50 [2]: 410 nM
SMILES: CC(=O)N1CCN(c2ccc(CN3[C@@H](C)CC[C@H](c4ccncc4)S3(=O)=O)c(F)c2)CC1

Efficacy [1]: 91%
EC50 [2]: 230 nM
SMILES: CC(=O)N1CCN(c2ccc(CN3[C@@H](C)CC[C@H](c4ccccc4Cl)S3(=O)=O)c(F)c2)CC1

Efficacy [1]: 87%
EC50 [2]: 120 nM
SMILES: CC(=O)N1CCN(c2ccc(CN3[C@@H](C)CC[C@H](c4ccccn4)S3(=O)=O)c(F)c2)CC1

Efficacy [1]: 94%
EC50 [2]: 94 nM
SMILES: COc1ccccc1[C@H]1CC[C@H](C)N(Cc2ccc(N3CCN(C(C)=O)CC3)cc2F)S1(=O)=O

Efficacy [1]: 98%
EC50 [2]: 73 nM
SMILES: CC(=O)N1CCN(c2ccc(CN3[C@H](C)COC[C@H](c4ccccc4)S3(=O)=O)c(F)c2)CC1

Efficacy [1]: 99%
EC50 [2]: 34 nM
SMILES: CC(=O)N1CCN(c2ccc(CN3[C@@H](C)CC[C@H](c4ccc(Cl)cc4)S3(=O)=O)c(F)c2)CC1

Efficacy [1]: 99%
EC50 [2]: 31 nM
SMILES: CC(=O)N1CCN(c2ccc(CN3CCOC[C@H](c4ccccc4)S3(=O)=O)c(F)c2)CC1
EC50 (PBMC [4]): > 20000 nM
EC50 (PBMC [5]): > 20000 nM
EC50 (PBMC [8]): 1200 nM
Imax (PBMC [9]): 59%

Efficacy [1]: 100%
EC50 [2]: 8 nM
EC50 [3]: > 10000 nM
EC50 [6]: 64 nM
EC50 [7]: > 10000 nM
SMILES: CC(=O)N1CCN(c2ccc(CN3[C@@H](C)COC[C@H](c4ccccc4)S3(=O)=O)c(F)c2)CC1
EC50 (PBMC [4]): > 20000 nM
EC50 (PBMC [5]): > 20000 nM
EC50 (PBMC [8]): 750 nM
Imax (PBMC [9]): 80%

Efficacy [1]: 100%
Papp B→A [10]: 15 ×10⁻⁶ cm/s
EC50 [2]: 3 nM
hepatic extraction ratio [11]: > 0.7
efflux ratio [12]: 1
fraction unbound [13]: 0.06
EC50 [3]: > 10000 nM
fraction unbound [14]: 0.07
solubility kinetic [15]: 38 µM (≈ 18.1 µg/mL)
EC50 [6]: 22 nM
hepatic extraction ratio [16]: > 0.7
EC50 [7]: > 10000 nM
fraction unbound [17]: 0.11
Papp A→B [18]: 16 ×10⁻⁶ cm/s
SMILES: CC(=O)N1CCN(c2ccc(CN3C[C@H](C)OC[C@H](c4ccccc4)S3(=O)=O)c(F)c2)CC1
EC50 (PBMC [4]): > 20000 nM
EC50 (PBMC [5]): > 20000 nM
EC50 (PBMC [8]): 450 nM
Imax (PBMC [9]): 67%
